{"source": "ChEMBL document CHEMBL4387741", "about": "“Optimization of novel reversible Bruton's tyrosine kinase inhibitors identified using Tethering-fragment-based screens” (Bioorg Med Chem, 2019)", "key": {"[1]": {"biological_target": "Serine/threonine-protein kinase BRSK1 (Homo sapiens) (UniProt Q8TDC3)", "experiment": "Inhibition of wild-type human partial length BRSK1 (M1 to E754 residues) expressed in bacterial expression system at 1 uM by Kinomescan method relative to control"}, "[2]": {"biological_target": "Cyclin-dependent kinase 9 (Homo sapiens) (UniProt P50750)", "sequence (P50750 whole entry, the tested form may be a part)": "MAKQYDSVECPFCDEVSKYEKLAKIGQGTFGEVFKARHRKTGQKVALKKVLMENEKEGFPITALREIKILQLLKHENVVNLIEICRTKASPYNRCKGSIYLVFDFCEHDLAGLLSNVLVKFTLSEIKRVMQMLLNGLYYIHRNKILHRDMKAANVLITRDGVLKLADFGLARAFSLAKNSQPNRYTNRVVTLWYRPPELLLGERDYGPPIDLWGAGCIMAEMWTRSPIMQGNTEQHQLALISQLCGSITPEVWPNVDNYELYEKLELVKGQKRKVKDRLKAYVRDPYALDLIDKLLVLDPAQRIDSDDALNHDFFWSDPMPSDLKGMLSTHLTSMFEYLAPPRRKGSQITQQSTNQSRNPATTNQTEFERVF", "experiment": "Inhibition of wild-type human full length CDK9 (M1 to F372 residues) expressed in bacterial expression system at 1 uM by Kinomescan method relative to control"}, "[3]": {"biological_target": "Ephrin type-A receptor 7 (Homo sapiens) (UniProt Q15375)", "experiment": "Inhibition of wild-type human partial length EPHA7 (Y608 to S912 residues) expressed in bacterial expression system at 1 uM by Kinomescan method relative to control"}, "[4]": {"biological_target": "Mitogen-activated protein kinase 7 (Homo sapiens) (UniProt Q13164)", "experiment": "Inhibition of wild-type human partial length ERK5 (M1 to A409 residues) expressed in bacterial expression system at 1 uM by Kinomescan method relative to control"}, "[5]": {"biological_target": "Fibroblast growth factor receptor 1 (Homo sapiens) (UniProt P11362)", "experiment": "Inhibition of wild-type human partial length FGFR1 (P357 to V669 residues) expressed in bacterial expression system at 1 uM by Kinomescan method relative to control"}, "[6]": {"biological_target": "Fibroblast growth factor receptor 3 (Homo sapiens) (UniProt P22607)", "experiment": "Inhibition of wild-type human partial length FGFR3 (R442 to S771 residues) expressed in bacterial expression system at 1 uM by Kinomescan method relative to control"}, "[7]": {"biological_target": "Tyrosine-protein kinase FRK (Homo sapiens) (UniProt P42685)", "experiment": "Inhibition of wild-type human partial length FRK (A215 to F503 residues) expressed in bacterial expression system at 1 uM by Kinomescan method relative to control"}, "[8]": {"biological_target": "Hormonally up-regulated neu tumor-associated kinase (Homo sapiens) (UniProt P57058)", "experiment": "Inhibition of wild-type human partial length HUNK (A31 to K354 residues) expressed in bacterial expression system at 1 uM by Kinomescan method relative to control"}, "[9]": {"biological_target": "Inhibitor of nuclear factor kappa-B kinase subunit epsilon (Homo sapiens) (UniProt Q14164)", "experiment": "Inhibition of wild-type human full length IKK-epsilon (M1 to V716 residues) expressed in mammalian expression system at 1 uM by Kinomescan method relative to control"}, "[10]": {"test_system": "Mast/stem cell growth factor receptor Kit (Homo sapiens), P10721 [L576P]", "experiment": "Inhibition of human partial length KIT L576P mutant (Y545 to D952 residues) expressed in bacterial expression system at 1 uM by Kinomescan method relative to control"}, "[11]": {"test_system": "Leucine-rich repeat serine/threonine-protein kinase 2 (Homo sapiens), Q5S007 [G2019S]", "sequence (Q5S007 whole entry G2019S, the tested form may be a part)": "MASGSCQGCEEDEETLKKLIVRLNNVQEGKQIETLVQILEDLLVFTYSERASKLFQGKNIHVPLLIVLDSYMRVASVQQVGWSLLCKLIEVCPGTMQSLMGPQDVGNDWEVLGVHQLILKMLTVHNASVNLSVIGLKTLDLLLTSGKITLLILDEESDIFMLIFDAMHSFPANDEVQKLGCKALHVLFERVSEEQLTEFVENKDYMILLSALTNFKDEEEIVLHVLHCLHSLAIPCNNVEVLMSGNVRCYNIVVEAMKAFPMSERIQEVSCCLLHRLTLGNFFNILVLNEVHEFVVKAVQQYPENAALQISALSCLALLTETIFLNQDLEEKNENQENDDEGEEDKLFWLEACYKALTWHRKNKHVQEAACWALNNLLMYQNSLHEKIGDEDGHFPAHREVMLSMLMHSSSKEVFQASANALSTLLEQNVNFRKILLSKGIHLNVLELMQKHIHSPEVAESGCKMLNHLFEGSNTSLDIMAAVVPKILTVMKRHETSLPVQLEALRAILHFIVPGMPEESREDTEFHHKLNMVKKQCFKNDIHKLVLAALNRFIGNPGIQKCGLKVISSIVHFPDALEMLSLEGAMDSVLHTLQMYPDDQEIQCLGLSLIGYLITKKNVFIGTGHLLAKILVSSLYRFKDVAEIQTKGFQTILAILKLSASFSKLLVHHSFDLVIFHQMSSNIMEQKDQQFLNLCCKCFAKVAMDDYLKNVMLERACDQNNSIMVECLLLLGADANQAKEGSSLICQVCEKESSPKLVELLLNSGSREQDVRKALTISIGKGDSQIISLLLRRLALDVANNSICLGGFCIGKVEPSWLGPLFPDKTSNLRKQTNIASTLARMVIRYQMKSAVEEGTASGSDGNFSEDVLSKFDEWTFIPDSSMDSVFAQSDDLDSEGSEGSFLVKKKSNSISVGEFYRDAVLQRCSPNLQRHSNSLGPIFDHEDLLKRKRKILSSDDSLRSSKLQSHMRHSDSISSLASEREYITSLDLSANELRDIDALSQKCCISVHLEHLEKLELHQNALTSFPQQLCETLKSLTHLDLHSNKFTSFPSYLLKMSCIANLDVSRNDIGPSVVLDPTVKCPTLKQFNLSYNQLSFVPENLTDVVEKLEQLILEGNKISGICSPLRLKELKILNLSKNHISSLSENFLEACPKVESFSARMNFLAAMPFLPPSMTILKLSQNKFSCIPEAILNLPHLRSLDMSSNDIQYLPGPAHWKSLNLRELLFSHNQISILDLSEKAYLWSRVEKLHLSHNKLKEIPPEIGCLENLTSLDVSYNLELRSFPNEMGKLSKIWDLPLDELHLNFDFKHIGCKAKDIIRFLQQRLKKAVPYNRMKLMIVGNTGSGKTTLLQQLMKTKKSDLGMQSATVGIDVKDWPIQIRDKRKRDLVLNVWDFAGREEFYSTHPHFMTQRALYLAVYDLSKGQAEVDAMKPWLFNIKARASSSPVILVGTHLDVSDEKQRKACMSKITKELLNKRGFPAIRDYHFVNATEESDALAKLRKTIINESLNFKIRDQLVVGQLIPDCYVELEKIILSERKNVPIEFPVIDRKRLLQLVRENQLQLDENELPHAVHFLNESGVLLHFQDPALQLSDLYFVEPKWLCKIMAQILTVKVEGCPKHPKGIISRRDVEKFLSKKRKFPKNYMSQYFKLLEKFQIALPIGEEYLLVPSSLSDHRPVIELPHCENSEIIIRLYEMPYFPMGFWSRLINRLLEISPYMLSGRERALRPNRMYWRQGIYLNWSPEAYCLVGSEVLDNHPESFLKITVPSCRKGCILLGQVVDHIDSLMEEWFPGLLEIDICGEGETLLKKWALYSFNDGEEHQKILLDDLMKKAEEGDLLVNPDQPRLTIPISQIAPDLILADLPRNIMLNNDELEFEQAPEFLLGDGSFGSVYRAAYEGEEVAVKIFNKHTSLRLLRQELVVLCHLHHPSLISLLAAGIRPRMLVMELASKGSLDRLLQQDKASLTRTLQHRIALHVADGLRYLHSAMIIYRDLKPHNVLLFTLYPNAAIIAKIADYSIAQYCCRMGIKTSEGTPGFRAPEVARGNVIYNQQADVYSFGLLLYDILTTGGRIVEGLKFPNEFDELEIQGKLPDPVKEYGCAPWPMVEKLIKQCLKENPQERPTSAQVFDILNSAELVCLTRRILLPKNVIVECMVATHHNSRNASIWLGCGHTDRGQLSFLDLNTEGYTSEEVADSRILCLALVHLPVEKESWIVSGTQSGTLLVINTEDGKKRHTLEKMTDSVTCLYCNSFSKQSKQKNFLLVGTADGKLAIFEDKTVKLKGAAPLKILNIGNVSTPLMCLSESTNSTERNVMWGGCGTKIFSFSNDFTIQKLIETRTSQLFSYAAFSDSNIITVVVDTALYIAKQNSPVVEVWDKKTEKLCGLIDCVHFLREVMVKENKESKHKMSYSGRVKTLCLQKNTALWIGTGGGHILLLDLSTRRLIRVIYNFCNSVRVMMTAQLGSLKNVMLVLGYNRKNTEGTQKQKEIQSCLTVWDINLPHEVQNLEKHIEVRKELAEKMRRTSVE", "experiment": "Inhibition of human partial length LRRK2 G2019S mutant (H970 to E2527 residues) expressed in mammalian expression system at 1 uM by Kinomescan method relative to control"}, "[12]": {"biological_target": "Dual specificity mitogen-activated protein kinase kinase 3 (Homo sapiens) (UniProt P46734)", "experiment": "Inhibition of wild-type human full length MEK3 (M1 to S318 residues) expressed in mammalian expression system at 1 uM by Kinomescan method relative to control"}, "[13]": {"biological_target": "Serine/threonine-protein kinase Nek11 (Homo sapiens) (UniProt Q8NG66)", "experiment": "Inhibition of wild-type human partial length NEK11 (M1 to E313 residues) expressed in mammalian expression system at 1 uM by Kinomescan method relative to control"}, "[14]": {"biological_target": "Calcium-dependent protein kinase 1 (Plasmodium falciparum) (UniProt P62344)", "experiment": "Inhibition of wild-type Plasmodium falciparum full length CDPK1 (M1 to S524 residues) expressed in mammalian expression system at 1 uM by Kinomescan method relative to control"}, "[15]": {"biological_target": "Phosphatidylinositol 4-phosphate 3-kinase C2 domain-containing subunit beta (Homo sapiens) (UniProt O00750)", "experiment": "Inhibition of wild-type human partial length PIK3C2B (M1 to L1634 residues) expressed in mammalian expression system at 1 uM by Kinomescan method relative to control"}, "[16]": {"biological_target": "Serine/threonine-protein kinase RIO3 (Homo sapiens) (UniProt O14730)", "sequence (O14730 whole entry, the tested form may be a part)": "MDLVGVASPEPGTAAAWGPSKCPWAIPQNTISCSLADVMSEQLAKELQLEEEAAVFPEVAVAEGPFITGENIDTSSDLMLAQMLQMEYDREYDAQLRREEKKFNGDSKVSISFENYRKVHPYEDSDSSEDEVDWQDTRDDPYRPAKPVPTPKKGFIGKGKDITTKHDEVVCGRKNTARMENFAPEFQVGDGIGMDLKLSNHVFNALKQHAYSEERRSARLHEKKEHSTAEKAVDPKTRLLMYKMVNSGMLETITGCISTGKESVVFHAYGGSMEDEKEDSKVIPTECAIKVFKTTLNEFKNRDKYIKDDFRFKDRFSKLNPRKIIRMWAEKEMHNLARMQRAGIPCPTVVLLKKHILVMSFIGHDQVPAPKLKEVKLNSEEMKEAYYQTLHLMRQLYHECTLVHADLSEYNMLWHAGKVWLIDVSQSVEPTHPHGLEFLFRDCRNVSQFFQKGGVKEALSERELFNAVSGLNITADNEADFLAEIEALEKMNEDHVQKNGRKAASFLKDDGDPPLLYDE", "experiment": "Inhibition of wild-type human full length RIOK3 (M1 to E519 residues) expressed in bacterial expression system at 1 uM by Kinomescan method relative to control"}, "[17]": {"biological_target": "Serine/threonine-protein kinase TAO3 (Homo sapiens) (UniProt Q9H2K8)", "experiment": "Inhibition of wild-type human partial length TAOK3 (M1 to T316 residues) expressed in mammalian expression system at 1 uM by Kinomescan method relative to control"}, "[18]": {"biological_target": "Cyclin-dependent kinase 2 (Homo sapiens) (UniProt P24941)", "experiment": "Inhibition of wild-type human full length CDK2 (M1 to L298 residues) expressed in bacterial expression system at 10 uM by Kinomescan method relative to control"}, "[19]": {"biological_target": "Cyclin-dependent kinase-like 2 (Homo sapiens) (UniProt Q92772)", "experiment": "Inhibition of wild-type human partial length CDKL2 (M1 to D327 residues) expressed in bacterial expression system at 10 uM by Kinomescan method relative to control"}, "[20]": {"biological_target": "Citron Rho-interacting kinase (Homo sapiens) (UniProt O14578)", "experiment": "Inhibition of wild-type human partial length CIT (M68 to E432 residues) expressed in bacterial expression system at 10 uM by Kinomescan method relative to control"}, "[21]": {"test_system": "Epidermal growth factor receptor (Homo sapiens), P00533 [UNDEFINED MUTATION]", "sequence (P00533 whole entry, looked up, stated change not applied)": "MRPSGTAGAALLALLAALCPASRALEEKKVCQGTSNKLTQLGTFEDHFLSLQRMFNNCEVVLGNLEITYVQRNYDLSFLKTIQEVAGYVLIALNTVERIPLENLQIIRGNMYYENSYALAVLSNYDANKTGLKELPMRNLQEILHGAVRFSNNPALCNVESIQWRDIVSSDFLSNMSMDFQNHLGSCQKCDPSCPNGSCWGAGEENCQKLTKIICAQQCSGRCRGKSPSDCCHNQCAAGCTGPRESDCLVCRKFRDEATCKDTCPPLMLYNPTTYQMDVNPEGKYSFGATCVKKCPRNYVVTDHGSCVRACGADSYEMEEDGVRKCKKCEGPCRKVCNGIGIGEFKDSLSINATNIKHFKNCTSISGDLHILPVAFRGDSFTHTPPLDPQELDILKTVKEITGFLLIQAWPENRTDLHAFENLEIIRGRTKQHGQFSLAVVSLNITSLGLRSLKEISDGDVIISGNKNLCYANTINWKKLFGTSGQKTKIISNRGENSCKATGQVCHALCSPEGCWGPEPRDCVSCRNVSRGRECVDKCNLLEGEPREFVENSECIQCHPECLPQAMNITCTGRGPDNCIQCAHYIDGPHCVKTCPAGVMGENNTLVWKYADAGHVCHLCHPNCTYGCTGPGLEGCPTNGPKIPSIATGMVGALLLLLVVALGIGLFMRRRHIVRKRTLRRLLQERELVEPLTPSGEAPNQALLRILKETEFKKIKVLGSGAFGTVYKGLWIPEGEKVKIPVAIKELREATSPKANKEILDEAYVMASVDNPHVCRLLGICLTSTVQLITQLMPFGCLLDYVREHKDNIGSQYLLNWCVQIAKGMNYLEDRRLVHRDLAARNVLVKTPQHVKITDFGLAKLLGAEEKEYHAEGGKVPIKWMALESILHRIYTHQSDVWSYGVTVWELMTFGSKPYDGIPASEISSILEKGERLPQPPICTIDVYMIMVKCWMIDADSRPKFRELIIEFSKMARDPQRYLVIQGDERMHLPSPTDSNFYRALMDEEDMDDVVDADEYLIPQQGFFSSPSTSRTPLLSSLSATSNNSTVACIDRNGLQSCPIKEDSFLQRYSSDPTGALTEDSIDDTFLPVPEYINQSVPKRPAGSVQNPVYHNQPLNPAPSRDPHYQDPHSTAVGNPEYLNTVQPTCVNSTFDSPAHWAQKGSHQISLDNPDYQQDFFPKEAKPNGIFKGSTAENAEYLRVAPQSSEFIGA", "experiment": "Inhibition of human partial length EGFR L747-E749del/A750P mutant expressed in bacterial expression system at 10 uM by Kinomescan method relative to control"}, "[22]": {"test_system": "Epidermal growth factor receptor (Homo sapiens), P00533 [UNDEFINED MUTATION]", "experiment": "Inhibition of human partial length EGFR L747-T751del/Sins mutant expressed in bacterial expression system at 10 uM by Kinomescan method relative to control"}, "[23]": {"test_system": "Receptor-type tyrosine-protein kinase FLT3 (Homo sapiens), P36888 [UNDEFINED MUTATION]", "experiment": "Inhibition of human partial length FLT3 ITD mutant expressed in bacterial expression system at 10 uM by Kinomescan method relative to control"}, "[24]": {"biological_target": "MAP/microtubule affinity-regulating kinase 3 (Homo sapiens) (UniProt P27448)", "experiment": "Inhibition of wild-type human full length MARK3 (M1 to L729 residues) expressed in bacterial expression system at 10 uM by Kinomescan method relative to control"}, "[25]": {"biological_target": "Serine/threonine-protein kinase PAK 2 (Homo sapiens) (UniProt Q13177)", "experiment": "Inhibition of wild-type human partial length PAK2 (P151 to R525 residues) expressed in bacterial expression system at 10 uM by Kinomescan method relative to control"}, "[26]": {"biological_target": "Serine/threonine-protein kinase tousled-like 1 (Homo sapiens) (UniProt Q9UKI8)", "experiment": "Inhibition of wild-type human partial length TLK1 (K447 to A754 residues) expressed in bacterial expression system at 10 uM by Kinomescan method relative to control"}, "[27]": {"biological_target": "Serine/threonine-protein kinase 32B (Homo sapiens) (UniProt Q9NY57)", "sequence (Q9NY57 whole entry, the tested form may be a part)": "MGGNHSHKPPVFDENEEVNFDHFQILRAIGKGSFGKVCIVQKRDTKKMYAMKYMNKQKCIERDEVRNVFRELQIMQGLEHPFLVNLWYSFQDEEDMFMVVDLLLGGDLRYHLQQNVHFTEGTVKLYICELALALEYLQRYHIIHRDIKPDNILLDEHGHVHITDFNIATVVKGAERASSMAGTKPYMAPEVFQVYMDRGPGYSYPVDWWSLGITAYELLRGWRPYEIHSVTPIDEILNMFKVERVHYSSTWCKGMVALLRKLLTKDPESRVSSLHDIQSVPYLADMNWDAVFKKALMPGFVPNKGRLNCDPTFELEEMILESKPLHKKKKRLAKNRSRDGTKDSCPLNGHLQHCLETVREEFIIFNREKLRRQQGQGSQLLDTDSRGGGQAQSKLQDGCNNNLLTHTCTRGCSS", "experiment": "Inhibition of wild-type human full length YANK2 (M1 to S414 residues) expressed in bacterial expression system at 10 uM by Kinomescan method relative to control"}}}
{"compound": "O=C(Nc1cccc([C@@H]2CN(c3ncnc4[nH]ccc34)CCN2CCO)c1)Nc1c(F)cccc1N1CCCC1", "values": [{"measurement": "inhibition", "setting": "[1]", "value": 100, "unit": "%"}, {"measurement": "inhibition", "setting": "[2]", "value": 100, "unit": "%"}, {"measurement": "inhibition", "setting": "[3]", "value": 100, "unit": "%"}, {"measurement": "inhibition", "setting": "[4]", "value": 100, "unit": "%"}, {"measurement": "inhibition", "setting": "[5]", "value": 46, "unit": "%"}, {"measurement": "inhibition", "setting": "[6]", "value": 83, "unit": "%"}, {"measurement": "inhibition", "setting": "[7]", "value": 99, "unit": "%"}, {"measurement": "inhibition", "setting": "[8]", "value": 100, "unit": "%"}, {"measurement": "inhibition", "setting": "[9]", "value": 96, "unit": "%"}, {"measurement": "inhibition", "setting": "[10]", "value": 35, "unit": "%"}, {"measurement": "inhibition", "setting": "[11]", "value": 100, "unit": "%"}, {"measurement": "inhibition", "setting": "[12]", "value": 77, "unit": "%"}, {"measurement": "inhibition", "setting": "[13]", "value": 86, "unit": "%"}, {"measurement": "inhibition", "setting": "[14]", "value": 71, "unit": "%"}, {"measurement": "inhibition", "setting": "[15]", "value": 87, "unit": "%"}, {"measurement": "inhibition", "setting": "[16]", "value": 26, "unit": "%"}, {"measurement": "inhibition", "setting": "[17]", "value": 88, "unit": "%"}]}
{"compound": "O=C(Nc1cccc([C@H]2CCCN(c3ncnc4[nH]ccc34)C2)c1)Nc1ccccc1N1CCCC1", "values": [{"measurement": "inhibition", "setting": "[18]", "value": 67, "unit": "%"}, {"measurement": "inhibition", "setting": "[19]", "value": 38, "unit": "%"}, {"measurement": "inhibition", "setting": "[20]", "value": 0.2, "unit": "%"}, {"measurement": "inhibition", "setting": "[21]", "value": 82, "unit": "%"}, {"measurement": "inhibition", "setting": "[22]", "value": 88, "unit": "%"}, {"measurement": "inhibition", "setting": "[23]", "value": 8.5, "unit": "%"}, {"measurement": "inhibition", "setting": "[24]", "value": 100, "unit": "%"}, {"measurement": "inhibition", "setting": "[25]", "value": 88, "unit": "%"}, {"measurement": "inhibition", "setting": "[26]", "value": 78, "unit": "%"}, {"measurement": "inhibition", "setting": "[27]", "value": 100, "unit": "%"}]}
